{"source": "patent US9861601B2", "about": "(The Board of Trustees of the Leland Stanford Junior …, priority 2012, dated 2018)", "key": {"[1]": {"system": "model of rodent PH utilizing SU and exposure to chronic hypoxia", "experiment": "Rodent PH model utilizing SU and chronic hypoxia (animals not prone to immune dysregulation)", "format": "in vivo", "conditions": "therapy initiated late in disease development"}, "[2]": {"system": "athymic rat model of PAH", "experiment": "SU5416 athymic nude rat model of PAH (PH)", "format": "in vivo", "conditions": "for reversal of established PH / PH-related death: treatment started 21 days (3 wk) after SU5416, doses as in b355, assessed at wk 5", "description": "(§1) In the model, PH was first initiated by a single injection of a VEGFR2 inhibitor, SU5416, and monitored by weekly echocardiography. Survival of the animals was recorded on daily basis. […] After 5 weeks (day 35), animals were sacrificed after right heart catheterization. […] Oral availability of ubenimex was determined by pharmacokinetic analysis.\nThe athymic nude rat model is an accepted model of severe PAH associated with immune dysregulation. Athymic nude rats (rnu/rnu) (Charles River Laboratories) were used for these studies. Six to eight week old animals were injected subcutaneously (s.c.) with a single dose of either SU5416 (SU) (10 mg/kg) dissolved in DMSO or DMSO (vehicle) alone. All animals were maintained in normoxic conditions. PH progression was monitored by weekly echocardiography (ECHO). Survival of rats was monitored out to wk 5 when they underwent a terminal right heart catheterization. PH was confirmed by ECHO. Hemodynamic measurements included right ventricular systolic pressure (RVSP) determined by right heart catheterization and right ventricular hypertrophy (RVH) determined by the weight ratio of RV/(LV+S) (right ventricle/(left ventricle+septum)).\nAll animals were sacrificed 5 wk after SU administration for hemodynamic measurements. […] Serial improvement was observed from the time of treatment initiation. Interval improvement was manifested by decreasing RV wall thickness and increasing pulmonary artery acceleration times (PAAT) after initiation of treatment. […] Here again, the compound of Formula III was notable: treatment with that compound yielded an RVH ratio of 0.29. RVH for healthy rats is generally about 0.25."}, "[3]": {"experiment": "Pharmacokinetic analysis of oral ubenimex formulation", "format": "in vivo, rat", "conditions": "PEG-400/HPCD formulation", "description": "as §1\n(not a statin-derivative), is a well-tolerated LTA4H inhibitor that blocks LTB4 formation. […] Ubenimex efficacy in reversing PAH was dose-dependent. The sustained release oral formulation was absorbed rapidly within 2-3 hours and was eliminated from the body with a T1/2 of 12 hours.\nA 20% (w/v) aqueous solution of hydroxypropyl-β-cyclodextrin (HPCD) was added to the mixture to bring the volume to 50 ml."}}, "data": [{"smiles": "CC(C)C[C@H](NC(=O)[C@@H](O)[C@H](N)Cc1ccccc1)C(=O)O", "note": "[ubenimex, (2S)-2-[[(2S,3R)-3-amino-2-hydroxy-4-phenylbutanoyl]amino]-4-methylpentanoic acid]", "values": [{"measurement": "response of PH animals to therapy", "setting": "[1]", "result": "did not respond"}, {"measurement": "accumulation of 5-LO expressing periarteriolar macrophages and B cells in lungs", "setting": "[2]; SU-treated athymic rats", "result": "significantly reduced"}, {"measurement": "in vivo PAEC apoptosis", "setting": "[2]; SU-treated athymic rats", "result": "reduced"}, {"measurement": "improvement in RVSP, RVH and survival", "setting": "[2]; oral once a day 0.25, 0.5, 0.75, 1 mg/kg, from 3 weeks after SU5416 for 2 weeks", "result": "dose dependent improvement"}, {"measurement": "prevention of PH development and survival", "setting": "[2]; systemic therapy initiated when SU was first administered", "result": "very effectively prevented PH development and prolonged survival"}, {"measurement": "reversal of established PH / PH-related death", "setting": "[2]", "result": "reverses established PH"}, {"measurement": "reversal of established PH / PH-related death", "setting": "[2]; listed as Ubenimex", "result": "dose-dependent"}, {"measurement": "time of absorption", "setting": "[3]", "result": "≤ 2", "unit": "h"}, {"measurement": "half-life", "setting": "[3]; athymic, rat, in vivo", "result": 12, "unit": "h"}]}]}
